The values below come from paper PMC8897147 (Acta Pharmaceutica Sinica. B, 2021).

Assay [1] concerns β2-AR. Kind of assay: cAMP accumulation. To be noted: COS-7, mean ± SEM n≥3. Background: Changes in cAMP serve as a functional read-out for many G protein-coupled receptors.
Assay [2] concerns β2-AR. Kind of assay: Gαq activation. The following applies: HEK293A, mean ± SEM n≥3.
Assay [3] has as its system β2-AR. Kind of assay: β-Arrestin1 recruitment. The following applies: COS-7, mean ± SEM n≥3; for Emax: % of max, receptor only.
In assay [4] the test system is β2-AR. Kind of assay: β-Arrestin2 recruitment. The following applies: COS-7, mean ± SEM n≥3; for Emax: % of max, receptor only. (In general: Activated receptors often draw arrestin, which recruitment assays turn into a signal.)
In another assay the target is CLR (Homo sapiens, UniProt Q16602). Kind of assay: BRET GPCR–RAMP interaction. It counts as binding. To be noted: COS-7; receptor-Rluc8:RAMP-Ypet 1:0.25 to 1:16; pH 7.4, 37 °C; mean ± SEM n≥3. On the technique in general: BRET reads energy transfer from a luciferase to a nearby fluorophore.
For another assay, the target named is GCGR (Homo sapiens, UniProt P47871). Kind of assay: BRET GPCR–RAMP interaction. In kind it is binding. To be noted: COS-7; receptor-Rluc8:RAMP-Ypet 1:0.25 to 1:16; pH 7.4, 37 °C; mean ± SEM n≥3.
The target of assay [5] is T1, GHRHR (Homo sapiens, UniProt Q02643).
T1 sequence (Q02643 23-423): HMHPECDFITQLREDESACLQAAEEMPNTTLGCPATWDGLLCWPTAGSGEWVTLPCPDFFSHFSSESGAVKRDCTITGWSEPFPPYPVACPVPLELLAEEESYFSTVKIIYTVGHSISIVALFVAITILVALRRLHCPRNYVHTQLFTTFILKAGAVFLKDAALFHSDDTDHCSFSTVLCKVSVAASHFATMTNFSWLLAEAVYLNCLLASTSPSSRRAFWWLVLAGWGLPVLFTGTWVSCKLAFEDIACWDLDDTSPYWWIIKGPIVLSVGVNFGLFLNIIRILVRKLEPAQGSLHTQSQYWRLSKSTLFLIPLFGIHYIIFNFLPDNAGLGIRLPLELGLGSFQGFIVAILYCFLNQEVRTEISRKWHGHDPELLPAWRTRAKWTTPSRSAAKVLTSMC
Kind of assay: BRET GPCR–RAMP interaction. In kind it is binding. To be noted: COS-7.

Assay [6] addresses T2, SV1 (Homo sapiens, UniProt Q02643).
T2 sequence (Q02643 90-423 limits assumed): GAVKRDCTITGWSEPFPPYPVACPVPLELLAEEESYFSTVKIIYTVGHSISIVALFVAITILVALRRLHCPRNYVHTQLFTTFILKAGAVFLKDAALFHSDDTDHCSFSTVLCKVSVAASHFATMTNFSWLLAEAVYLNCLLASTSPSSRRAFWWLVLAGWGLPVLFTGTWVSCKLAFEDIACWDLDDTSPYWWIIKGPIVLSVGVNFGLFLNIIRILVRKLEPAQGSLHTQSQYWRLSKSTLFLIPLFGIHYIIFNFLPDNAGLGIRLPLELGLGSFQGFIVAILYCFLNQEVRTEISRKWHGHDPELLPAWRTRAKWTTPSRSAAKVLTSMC
Briefly: BRET GPCR–RAMP interaction. It counts as binding. To be noted: COS-7; receptor-Rluc8:RAMP-Ypet 1:0.25 to 1:16; pH 7.4, 37 °C; mean ± SEM n≥3.

The target of another assay is T3, GIPR (Homo sapiens, UniProt P48546).
T3 sequence (P48546 22-466): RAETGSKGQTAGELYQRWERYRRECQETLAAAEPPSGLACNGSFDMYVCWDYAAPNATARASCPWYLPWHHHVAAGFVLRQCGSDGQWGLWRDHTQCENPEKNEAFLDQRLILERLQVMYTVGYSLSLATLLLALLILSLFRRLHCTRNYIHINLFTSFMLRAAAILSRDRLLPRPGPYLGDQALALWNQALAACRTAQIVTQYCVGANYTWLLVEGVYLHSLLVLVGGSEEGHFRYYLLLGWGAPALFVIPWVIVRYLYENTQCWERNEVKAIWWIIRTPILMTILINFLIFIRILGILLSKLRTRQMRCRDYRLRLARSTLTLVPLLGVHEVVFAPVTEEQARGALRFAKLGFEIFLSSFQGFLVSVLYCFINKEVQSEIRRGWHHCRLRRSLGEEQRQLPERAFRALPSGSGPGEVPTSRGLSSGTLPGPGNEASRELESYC
Briefly: BRET GPCR–RAMP interaction. In kind it is binding. The following applies: COS-7; receptor-Rluc8:RAMP-Ypet 1:0.25 to 1:16; pH 7.4, 37 °C; mean ± SEM n≥3.

For a further assay, the target named is GLP-1R (Homo sapiens, UniProt P43220). Kind of assay: BRET GPCR–RAMP interaction. The following applies: COS-7; receptor-Rluc8:RAMP-Ypet 1:0.25 to 1:16; pH 7.4, 37 °C; mean ± SEM n≥3. It counts as binding.
In a further assay the target is T4, GLP-2R (Homo sapiens, UniProt O95838).
T4 sequence (O95838 1-553): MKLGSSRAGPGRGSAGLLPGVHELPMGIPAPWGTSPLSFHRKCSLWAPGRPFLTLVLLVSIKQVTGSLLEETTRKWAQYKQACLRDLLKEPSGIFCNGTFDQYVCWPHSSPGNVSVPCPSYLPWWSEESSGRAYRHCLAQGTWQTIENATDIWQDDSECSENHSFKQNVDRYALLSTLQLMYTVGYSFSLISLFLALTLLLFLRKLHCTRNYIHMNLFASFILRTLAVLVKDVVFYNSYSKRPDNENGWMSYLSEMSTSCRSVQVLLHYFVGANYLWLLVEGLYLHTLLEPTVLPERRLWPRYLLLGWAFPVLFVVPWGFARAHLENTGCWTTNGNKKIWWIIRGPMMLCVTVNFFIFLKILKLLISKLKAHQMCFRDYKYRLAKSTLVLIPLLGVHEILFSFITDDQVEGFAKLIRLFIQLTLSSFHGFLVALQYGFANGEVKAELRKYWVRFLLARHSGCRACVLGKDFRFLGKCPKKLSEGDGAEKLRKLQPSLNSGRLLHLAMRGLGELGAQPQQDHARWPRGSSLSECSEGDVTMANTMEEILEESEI
Briefly: BRET GPCR–RAMP interaction. In kind it is binding. The following applies: COS-7.

In the next assay the test system is SCTR. Briefly: BRET GPCR–RAMP interaction. It counts as binding. The following applies: COS-7; receptor-Rluc8:RAMP-Ypet 1:0.25 to 1:16; pH 7.4, 37 °C; mean ± SEM n≥3.
The subject of another assay is COS-7 cells. Kind of assay: RAMP cell surface expression. In kind it is cell-based. The following applies: co-expression with SCTR, FLAG-RAMP.
In assay [7] the target is T1, GHRHR. The following applies: HEK293T cells ref [11]; cited from earlier work.
The target of assay [8] is T1, GHRHR. Briefly: cAMP accumulation. The following applies: COS-7, COS-7, % of max, receptor only, mean ± SEM n≥3.
The target in assay [9] is T2, SV1. Kind of assay: cAMP accumulation. The following applies: COS-7, COS-7, % of max, receptor only, mean ± SEM n≥3.
Assay [10] concerns the target T1, GHRHR. Briefly: Gαq activation. The following applies: HEK293-A, HEK293A, % of max, receptor only, mean ± SEM n≥3.
The target in assay [11] is T2, SV1. Kind of assay: Gαq activation. To be noted: HEK293A; no RAMP; data not shown.
Assay [12] has as its target T1, GHRHR. Briefly: β-Arrestin1 recruitment. To be noted: COS-7, COS-7, % of max, receptor only, mean ± SEM n≥3.
The target in assay [13] is T2, SV1. Briefly: β-Arrestin1 recruitment. To be noted: COS-7, COS-7, % of max, receptor only, mean ± SEM n≥3.
Where [14] appears, read: receptor-Rluc8:RAMP-Ypet 1:0.25 to 1:16, pH 7.4, 37 °C, mean ± SEM n≥3.

“Also recorded” adds a separate entry of the source. Read-outs that look alike come from different tables or passages of the source.

Sequence of GCGR (P47871 26-477, species assumed): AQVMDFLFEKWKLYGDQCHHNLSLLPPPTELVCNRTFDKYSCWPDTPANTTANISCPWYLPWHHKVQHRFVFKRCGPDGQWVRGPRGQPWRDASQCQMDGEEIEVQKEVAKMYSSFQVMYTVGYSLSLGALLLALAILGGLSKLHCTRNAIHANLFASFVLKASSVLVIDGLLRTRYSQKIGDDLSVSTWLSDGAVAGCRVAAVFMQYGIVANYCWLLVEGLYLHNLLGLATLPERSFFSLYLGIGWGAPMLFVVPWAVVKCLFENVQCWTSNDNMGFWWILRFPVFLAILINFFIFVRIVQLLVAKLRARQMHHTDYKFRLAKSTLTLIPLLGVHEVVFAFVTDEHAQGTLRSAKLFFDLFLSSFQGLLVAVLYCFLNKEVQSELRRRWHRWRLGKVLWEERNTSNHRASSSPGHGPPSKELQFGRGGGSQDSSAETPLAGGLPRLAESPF
Sequence of CLR (Q16602 23-461): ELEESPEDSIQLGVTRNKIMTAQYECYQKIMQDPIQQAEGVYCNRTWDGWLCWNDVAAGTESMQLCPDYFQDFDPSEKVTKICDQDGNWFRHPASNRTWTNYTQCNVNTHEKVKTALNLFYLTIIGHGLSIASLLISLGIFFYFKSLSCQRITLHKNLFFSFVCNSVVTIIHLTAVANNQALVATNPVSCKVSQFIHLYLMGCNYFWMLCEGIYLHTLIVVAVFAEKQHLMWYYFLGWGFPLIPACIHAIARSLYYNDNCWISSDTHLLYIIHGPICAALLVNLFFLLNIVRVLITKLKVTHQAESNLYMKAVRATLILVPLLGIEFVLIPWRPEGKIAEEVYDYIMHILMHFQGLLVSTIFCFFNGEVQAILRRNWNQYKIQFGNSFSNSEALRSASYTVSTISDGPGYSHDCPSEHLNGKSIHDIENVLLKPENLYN
Sequence of GLP-1R (P43220 24-463): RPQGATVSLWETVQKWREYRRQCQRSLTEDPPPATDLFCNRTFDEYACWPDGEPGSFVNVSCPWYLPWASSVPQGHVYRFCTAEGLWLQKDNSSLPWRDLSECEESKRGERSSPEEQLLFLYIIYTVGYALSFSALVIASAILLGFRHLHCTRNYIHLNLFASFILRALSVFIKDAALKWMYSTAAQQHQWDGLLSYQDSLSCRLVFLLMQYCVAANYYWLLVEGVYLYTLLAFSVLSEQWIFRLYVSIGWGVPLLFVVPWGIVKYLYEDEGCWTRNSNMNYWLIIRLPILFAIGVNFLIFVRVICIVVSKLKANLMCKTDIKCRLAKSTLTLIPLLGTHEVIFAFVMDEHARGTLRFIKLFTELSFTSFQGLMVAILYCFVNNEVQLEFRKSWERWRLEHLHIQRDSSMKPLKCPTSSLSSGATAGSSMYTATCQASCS

On to (−)-Adrenaline, for which the pEC50 (usually the EC50 on a negative log10 scale, so that one unit is a factor of ten) in the assay on β2-AR [1] (RAMP1) is given as 9.6 ± 0.1; with β2-AR [1] (RAMP2), 9.7 ± 0; in the assay with β2-AR [1] (RAMP3), 9.7 ± 0.1; with β2-AR [1] (vector (no RAMP)) it was 9.6 ± 0; in the assay with β2-AR [2] (RAMP1), 6.5 ± 0.2; in the assay with β2-AR [2] (RAMP2), 6.3 ± 0.4. Moreover, the pEC50 in the assay on β2-AR [2] (RAMP3) turned out to be 6.9 ± 0.3; in the assay with β2-AR [2] (vector (no RAMP)) it was 6.9 ± 0.2; with β2-AR [3] (RAMP1), 6 ± 0.4; in the assay on β2-AR [3] (RAMP2), 5.8 ± 0.5; with β2-AR [3] (RAMP3), 6 ± 0.4; with β2-AR [3] (vector (no RAMP)) it was 6.2 ± 0.3. For the same compound, the pEC50 is given as 6.7 ± 0.2 in the assay on β2-AR [4] (RAMP1), 6.5 ± 0.2 with β2-AR [4] (RAMP2), 6.4 ± 0.2 with β2-AR [4] (RAMP3) and 6.4 ± 0.1 in the assay with β2-AR [4] (vector (no RAMP)). For the same compound, the Emax (usually the size of the effect at its maximum, as opposed to the concentration needed) with β2-AR [3] (RAMP1) is reported as 77.3 ± 11.1%; with β2-AR [3] (RAMP2) it was 83.4 ± 15%; in the assay with β2-AR [4] (RAMP1), 79.1 ± 5.7%; in the assay with β2-AR [4] (RAMP2), 90 ± 5.4%; in the assay on β2-AR [4] (RAMP3) it was 79.2 ± 6.1%.

Consider “receptor activity-modulating protein 1 [RAMP1]”, for which the “Bmax (maximum measured BRET value)” value stood at 0.460 ± 0.017 in the assay with CLR; 1.149 ± 0.109 in the assay with GCGR; 1.122 ± 0.193 with GHRHR [5] (setting [14]); 1.364 ± 0.244 with SV1 [6]; 1.316 ± 0.203 in the assay with GIPR; 2.039 ± 1.234 with GLP-1R. Moreover, the “Bmax (maximum measured BRET value)” value is recorded as “Linear fit” in the assay with GLP-2R (setting [14]) and 0.573 ± 0.021 in the assay on SCTR. Further, the results for the interaction in words entry with GHRHR [5] (BRET), with GLP-2R (BRET) and with GHRHR [7] were “readily observed”, “poor interaction; also recorded: rather weak” and “insignificant”, respectively. Also, the “RAMP cell surface expression” value in the assay on COS-7 cells is on record as “promoted cell surface translocation”.

As for `CC[C@H](C)[C@H](NC(=O)[C@H](C)NC(=O)[C@H](CC(=O)O)NC(=O)[C@H](C)NC(=O)[C@@H](N)Cc1ccc(O)cc1)C(=O)N[C@@H](Cc1ccccc1)C(=O)N[C@H](C(=O)N[C@@H](CC(N)=O)C(=O)N[C@@H](CO)C(=O)N[C@@H](Cc1ccc(O)cc1)C(=O)N[C@@H](CCCNC(=N)N)C(=O)N[C@@H](CCCCN)C(=O)N[C@H](C(=O)N[C@@H](CC(C)C)C(=O)NCC(=O)N[C@@H](CCC(N)=O)C(=O)N[C@@H](CC(C)C)C(=O)N[C@@H](CO)C(=O)N[C@@H](C)C(=O)N[C@@H](CCCNC(=N)N)C(=O)N[C@@H](CCCCN)C(=O)N[C@@H](CC(C)C)C(=O)N[C@@H](CC(C)C)C(=O)N[C@@H](CCC(N)=O)C(=O)N[C@@H](CC(=O)O)C(=O)N[C@H](C(=O)N[C@@H](CCSC)C(=O)N[C@@H](CO)C(=O)N[C@@H](CCCNC(=N)N)C(=O)N[C@@H](CCC(N)=O)C(=O)N[C@@H](CCC(N)=O)C(=O)NCC(=O)N[C@@H](CCC(=O)O)C(=O)N[C@@H](CO)C(=O)N[C@@H](CC(N)=O)C(=O)N[C@@H](CCC(N)=O)C(=O)N[C@@H](CCC(=O)O)C(=O)N[C@@H](CCCNC(=N)N)C(=O)NCC(=O)N[C@@H](C)C(=O)N[C@@H](CCCNC(=N)N)C(=O)N[C@@H](C)C(=O)N[C@@H](CCCNC(=N)N)C(=O)N[C@@H](CC(C)C)C(N)=O)[C@@H](C)CC)C(C)C)[C@@H](C)O` [GHRH, growth hormone-releasing hormone], the Emax at GHRHR [8] (RAMP1) was 104 ± 1.2%; on GHRHR [8] (RAMP2), 102 ± 1.4%; on GHRHR [8] (RAMP3) it was 100 ± 1.5%; on SV1 [9] (RAMP1), 100 ± 3.4%; on SV1 [9] (RAMP2), 102 ± 4.2%; at SV1 [9] (RAMP3) it was 100 ± 2%. Further, the Emax came to 100 ± 1.8% at SV1 [9] (vector (no RAMP)); 91.8 ± 8.3% on GHRHR [10] (RAMP1); 87.9 ± 8% on GHRHR [10] (RAMP3); 100 ± 6.9% at GHRHR [10] (vector (no RAMP)); 124 ± 42.2% at GHRHR [12] (RAMP1); 124 ± 34% at GHRHR [12] (RAMP2). In addition, the Emax on GHRHR [12] (RAMP3) stood at 102 ± 45.7%; at GHRHR [12] (vector (no RAMP)) it was 100 ± 25.3%; at SV1 [13] (RAMP1), 188 ± 36.8%; at SV1 [13] (RAMP2), 182 ± 44.2%; on SV1 [13] (RAMP3) it was 168 ± 49.1%; on SV1 [13] (vector (no RAMP)), 100 ± 11.2%. In addition, the “Gαq response, receptor alone” value on SV1 [11] is reported as “did not affect Gαq response”.
